Where two headings read alike, the source gives them in different places.
How the values were obtained:
[1] = tested on: mouse carotid artery injury model; assay: mouse carotid artery injury model, neointimal area; assay type: in vivo; settings: female B6.129 mice, high fat diet, oral 50 mg/kg resveratrol, 10 mg/kg quercetin or both, 2 weeks before and 2 weeks after injury
Description: FIG. 9 is a bar chart showing the effects of oral administration with 50 mg/kg resveratrol (RESV), 10 mg/kg quercetin (QUER), or resveratrol plus quercetin on neointimal areas in mice subjected to the carotid artery injury procedure. Values represent means+SEM. […] Neointimal area was determined by subtracting the luminal area from the area encircled by the internal elastic lamina. Determining whether quercetin potentiates the vascular protective effects of resveratrol in vivo, utilizing a mouse carotid artery injury model. Female B6.129 mice were administered a high fat diet, in some cases mixed together with 50 mg/kg resveratrol (RESV), 10 mg/kg quercetin (QUER), or resveratrol plus quercetin, for 2 weeks. The carotid artery injury procedure was conducted and the animals were fed the high fat diet plus polyphenols for an additional two weeks. The animals were then sacrificed, and the carotid arteries were excised and assessed for neointimal areas.

platelets = assay: platelet activation, tritiated serotonin release after ADP; assay type: cell-based, human; settings: 3 h, 5 μM ADP
Description: Values represent means+/−standard error.
To determine the efficacy of these compounds in reducing platelet activation, platelets isolated from healthy, male donors were incubated with resveratrol, quercetin, or resveratrol plus quercetin. The doses were selected based on prior studies.

platelet activation = assay: thromboxane B2 levels in mouse carotid artery injury model; assay type: in vivo; settings: 4 weeks oral, 50 mg/kg resveratrol, 10 mg/kg quercetin or both, B6.129 mice
Description: Plasma levels of thromboxane B2 (TBX2), a known marker for platelet activation, were assessed.

macrophages [2] = assay: LPS-stimulated macrophage activation, iNOS protein; assay type: cell-based
Description: To test the efficacy of a resveratrol/quercetin combination in inhibiting the activation of macrophages, effects of polyphenol treatments either alone or in combination with quercetin were assessed in cultures of lipopolysaccharide (LPS) stimulated macrophages. Macrophage activation was determined by increases in protein levels of inducible nitric oxide synthase (iNOS) and by levels of reactive oxygen species (ROS).

macrophages [3] = assay: LPS-stimulated macrophage activation, nitric oxide release, isobologram; assay type: cell-based; settings: CalcuSyn, read-out: IC50 macrophage activation, individual treatments
Description: Macrophages were incubated with differing dose ratios of resveratrol:quercetin and were stimulated with LPS. Activation was assessed as increases in nitric oxide release. The IC50's for each dose ratio were calculated using CaluSyn software and were used to plot the isobologram. The line depicted above indicates the point at which additive responses are observed (C1=1). Points lying above the line indicate antagonism, whereas points below the line represent synergism.
Isobolograms for the determination of synergistic dose ratios for a resveratrol/quercetin combination. To determine the dose ratios for achieving maximal synergistic effects, activation in LPS-stimulated cells macrophages incubated with constant dose ratios of resveratrol and quercetin was measured. The IC50 for each dose ratio was calculated using CalcuSyn software, and these concentrations were used to construct an isobologram (FIG. 13). […] Briefly, CI=1 denotes additive effects, CI>1 denotes antagonism, and CI<1 indicates synergism.

VSMC [4] = assay: BrdU proliferation assay of VSMC with drug-eluting flats; assay type: cell-based; settings: 48 hours elution
Description: Bare metal flats coated with resveratrol—(FIG. 17A) or quercetin—(FIG. 17B) containing arbIBS of either a closed or an open morphology were incubated in semi-permeable transwell inserts in plates containing VSMC. The bromodeoxyuridine (BrdU) incorporation assay for cell proliferation was conducted after 48 h of drug elution. […] The polyisobutylene-polystyrene triblock copolymers coated flats containing resveratrol or quercetin were incubated in semi-permeable transwell inserts in plates containing VSMC.

[5] = cited from earlier work
VSMC [6] = assay: VSMC proliferation (DNA synthesis, cell number); assay type: cell-based; settings: Rattus norvegicus
[7] = resveratrol release from polymer-coated flats (HPLC); assay type: physicochemical
Description: Polymer coated flats were incubated in medium at 37° C. for 28 d. Resveratrol concentration in the medium was assessed at 2 d intervals using high performance liquid chromatography. The data are expressed as means+/−standard error for cumulative release in micromolar concentrations (FIG. 18A) compared to a percent of total drug loaded (FIG. 18B).
Determination of resveratrol release was performed using reversed phase high performance liquid chromatography (HPLC) coupled to a 4-channel Coularray electrochemical detector run at 590, 660, 730, and 800 mV. […] Establishing biocompatibility is a critical step in the development of the stent models.

NFκB = NFκB activation in vascular smooth muscle cells; assay type: cell-based
Source text: FIG. 3 is a bar chart showing the effect of resveratrol on NFκB activation in vascular smooth muscle cells

ER-alpha = biological target: T1, ER-alpha (Homo sapiens, UniProt P03372); settings: same binding site as estradiol; cited from earlier work
T1 sequence (P03372 1-595): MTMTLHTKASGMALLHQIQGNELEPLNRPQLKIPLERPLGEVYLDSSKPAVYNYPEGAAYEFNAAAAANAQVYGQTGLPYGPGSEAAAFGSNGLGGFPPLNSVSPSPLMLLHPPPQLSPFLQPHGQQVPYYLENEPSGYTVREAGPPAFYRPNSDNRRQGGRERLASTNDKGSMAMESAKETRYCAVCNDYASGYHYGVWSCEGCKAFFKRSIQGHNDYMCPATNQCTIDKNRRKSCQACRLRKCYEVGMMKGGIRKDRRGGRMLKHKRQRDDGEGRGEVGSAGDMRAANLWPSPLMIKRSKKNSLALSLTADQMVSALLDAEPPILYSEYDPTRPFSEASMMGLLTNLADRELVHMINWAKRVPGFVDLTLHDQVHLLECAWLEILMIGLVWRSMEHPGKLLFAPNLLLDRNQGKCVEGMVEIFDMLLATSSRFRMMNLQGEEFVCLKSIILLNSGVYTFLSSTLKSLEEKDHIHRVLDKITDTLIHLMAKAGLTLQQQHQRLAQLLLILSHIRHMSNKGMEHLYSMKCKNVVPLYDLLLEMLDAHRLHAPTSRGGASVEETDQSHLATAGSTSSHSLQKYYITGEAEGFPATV

SMILES | neointimal area [1] | reduction of serotonin release (platelets; 10-15 μM quercetin) | reduction of plasma TXB2 levels (platelet activation) | reduction of iNOS protein (macrophages [2]; 10 μM quercetin) [%] | reduction of iNOS protein (macrophages [2]; 15 μM quercetin) [%] | IC50 (macrophages [3]) [µM] | inhibition of VSMC proliferation (VSMC [4]; 75 μg/cm^2, particulate (open) or smooth (closed) matrix) | solubility in water [5] | EC50 (VSMC [6]; read-out: EC50 for inhibiting DNA synthesis) [µM] | EC50 (VSMC [6]; read-out: EC50 for reducing numbers of cells) [µM] | reduction of serotonin release (platelets; 18 μM resveratrol) [%] | reduction of iNOS protein levels (macrophages [2]; 18 μM resveratrol) [%] | inhibition of VSMC proliferation (VSMC [4]; smooth (closed) matrix, 100 μg/cm^2 loading) | total drug loaded that had eluted ([7]; at 28 days) | eluted concentration of resveratrol ([7]; medium 37° C., 28 d) | release from 100 mg/cm^2 coated flat relative to 50 mg/cm^2-coated flat ([7]; regardless of morphology, medium 37° C.) | inhibition of NFκB activation (NFκB) | binding affinity (ER-alpha)
O=c1c(O)c(-c2ccc(O)c(O)c2)oc2cc(O)cc(O)c12 [quercetin, 2-(3,4-dihydroxyphenyl)-3,5,7-trihydroxy-4H-1-benzopyran-4-one] | no significant effect | 40-50% | 40% | ~75 | ~90 | 2.4 | significantly inhibited proliferation | practically insoluble |  |  |  |  |  |  |  |  |  | 
Oc1ccc(C=Cc2cc(O)cc(O)c2)cc1 [resveratrol] | dramatically reduced |  | no significant effect |  |  | 3.5 |  |  | 18 | 25 | ~60 | ~25 | significantly inhibited proliferation | 5-10% | low micromolar concentrations | approximately 4 fold | very potently | lower binding affinity than estradiol
